# From PubChem BioAssay (NCI)
#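 Five compound concentrations were applied to cells in 96-well plates for 48 hours; endpoints were derived by simple linear interpolation of the resulting dose-response curve. Here, GI50 denotes the concentration required for 50% inhibition of growth. At the TGI there is no net growth.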
# How the values were obtained:
# Experiment in all cases: DTP human tumour cell line panel, 48 h
# HOP-62 NSCLC = tested on: HOP-62 NSCLC
# COLO 205 colon = tested on: COLO 205 colon
# M14 melanoma = tested on: M14 melanoma
# MOLT-4 leukemia = tested on: MOLT-4 leukemia
# T-47D breast = tested on: T-47D breast
# MDA-MB-231 breast = tested on: MDA-MB-231 breast
# SN12C renal = tested on: SN12C renal
# OVCAR-5 ovarian = tested on: OVCAR-5 ovarian
# UO-31 renal = tested on: UO-31 renal
# HCC-2998 colon = tested on: HCC-2998 colon
# IGROV1 ovarian = tested on: IGROV1 ovarian
# OVCAR-8 ovarian = tested on: OVCAR-8 ovarian
# SF-539 CNS = tested on: SF-539 CNS
# PC-3 prostate = tested on: PC-3 prostate
# CAKI-1 renal = tested on: CAKI-1 renal
# NCI-H23 lung = tested on: NCI-H23 lung
# MCF7 breast = tested on: MCF7 breast
# ACHN renal = tested on: ACHN renal
# HL-60(TB) leukemia = tested on: HL-60(TB) leukemia
# K-562 leukemia = tested on: K-562 leukemia
# A549 NSCLC = tested on: A549 NSCLC
# CCRF-CEM leukemia = tested on: CCRF-CEM leukemia
# HOP-92 NSCLC = tested on: HOP-92 NSCLC
# NCI/ADR-RES ovarian = tested on: NCI/ADR-RES ovarian
# U251 CNS = tested on: U251 CNS
# RPMI-8226 leukemia = tested on: RPMI-8226 leukemia
# SK-MEL-2 melanoma = tested on: SK-MEL-2 melanoma
# OVCAR-3 ovarian = tested on: OVCAR-3 ovarian
# A498 renal = tested on: A498 renal
# OVCAR-4 ovarian = tested on: OVCAR-4 ovarian
# NCI-H460 lung = tested on: NCI-H460 lung
# BT-549 breast = tested on: BT-549 breast
# SK-MEL-5 melanoma = tested on: SK-MEL-5 melanoma
# HCT-15 colon = tested on: HCT-15 colon
# SNB-75 CNS = tested on: SNB-75 CNS
# SF-268 CNS = tested on: SF-268 CNS
# DU-145 prostate = tested on: DU-145 prostate
# SF-295 CNS = tested on: SF-295 CNS
# TK-10 renal = tested on: TK-10 renal
# NCI-H226 lung = tested on: NCI-H226 lung
# SK-OV-3 ovarian = tested on: SK-OV-3 ovarian
# UACC-257 melanoma = tested on: UACC-257 melanoma
# SNB-19 CNS = tested on: SNB-19 CNS
# UACC-62 melanoma = tested on: UACC-62 melanoma
# KM12 colon = tested on: KM12 colon
# LOX IMVI melanoma = tested on: LOX IMVI melanoma
# 786-0 renal = tested on: 786-0 renal
# HCT-116 colon = tested on: HCT-116 colon
# NCI-H522 lung = tested on: NCI-H522 lung
# SW-620 colon = tested on: SW-620 colon
# SK-MEL-28 melanoma = tested on: SK-MEL-28 melanoma
# HT29 colon = tested on: HT29 colon
# SR leukemia = tested on: SR leukemia
# EKVX NSCLC = tested on: EKVX NSCLC
# HS 578T breast = tested on: HS 578T breast
# MDA-MB-435 = tested on: MDA-MB-435
smiles,measurement,setting,value
CCN1C(=O)N(CC)C2SC(N/N=C/c3ccccc3F)=NC21 (stereo not given),GI50,HOP-62 NSCLC,474 nM
same,TGI,HOP-62 NSCLC,> 100 µM
same,GI50,COLO 205 colon,298 nM
same,TGI,COLO 205 colon,1480 nM
same,GI50,M14 melanoma,206 nM
same,TGI,M14 melanoma,610 nM
same,GI50,MOLT-4 leukemia,507 nM
same,TGI,MOLT-4 leukemia,> 100 µM
same,GI50,T-47D breast,557 nM
same,TGI,T-47D breast,> 100 µM
same,GI50,MDA-MB-231 breast,635 nM
same,TGI,MDA-MB-231 breast,> 100 µM
same,GI50,SN12C renal,567 nM
same,TGI,SN12C renal,> 100 µM
same,GI50,OVCAR-5 ovarian,517 nM
same,TGI,OVCAR-5 ovarian,> 100 µM
same,GI50,UO-31 renal,643 nM
same,TGI,UO-31 renal,> 100 µM
same,GI50,HCC-2998 colon,414 nM
same,TGI,HCC-2998 colon,27 µM
same,GI50,IGROV1 ovarian,599 nM
same,TGI,IGROV1 ovarian,> 100 µM
same,GI50,OVCAR-8 ovarian,425 nM
same,GI50,SF-539 CNS,238 nM
same,TGI,SF-539 CNS,772 nM
same,GI50,PC-3 prostate,347 nM
same,TGI,PC-3 prostate,> 100 µM
same,GI50,CAKI-1 renal,353 nM
same,TGI,CAKI-1 renal,> 100 µM
same,GI50,NCI-H23 lung,467 nM
same,TGI,NCI-H23 lung,> 100 µM
same,GI50,MCF7 breast,267 nM
same,TGI,MCF7 breast,> 100 µM
same,GI50,ACHN renal,864 nM
same,TGI,ACHN renal,> 100 µM
same,GI50,HL-60(TB) leukemia,199 nM
same,TGI,HL-60(TB) leukemia,633 nM
same,GI50,K-562 leukemia,194 nM
same,TGI,K-562 leukemia,> 100 µM
same,GI50,A549 NSCLC,526 nM
same,TGI,A549 NSCLC,> 100 µM
same,GI50,CCRF-CEM leukemia,364 nM
same,TGI,CCRF-CEM leukemia,> 100 µM
same,GI50,HOP-92 NSCLC,1280 nM
same,TGI,HOP-92 NSCLC,> 25.8 µM
same,GI50,NCI/ADR-RES ovarian,312 nM
same,TGI,NCI/ADR-RES ovarian,> 65.9 µM
same,GI50,U251 CNS,342 nM
same,TGI,U251 CNS,> 39.2 µM
same,GI50,RPMI-8226 leukemia,355 nM
same,TGI,RPMI-8226 leukemia,> 100 µM
same,GI50,SK-MEL-2 melanoma,326 nM
same,TGI,SK-MEL-2 melanoma,> 100 µM
same,GI50,OVCAR-3 ovarian,330 nM
same,TGI,OVCAR-3 ovarian,> 100 µM
same,GI50,A498 renal,204 nM
same,TGI,A498 renal,836 nM
same,GI50,OVCAR-4 ovarian,> 58.3 µM
same,TGI,OVCAR-4 ovarian,> 100 µM
same,GI50,NCI-H460 lung,353 nM
same,TGI,NCI-H460 lung,> 100 µM
same,GI50,BT-549 breast,298 nM
same,TGI,BT-549 breast,1590 nM
same,GI50,SK-MEL-5 melanoma,603 nM
same,TGI,SK-MEL-5 melanoma,20.7 µM
same,GI50,HCT-15 colon,344 nM
same,TGI,HCT-15 colon,> 100 µM
same,GI50,SNB-75 CNS,207 nM
same,TGI,SNB-75 CNS,> 73 µM
same,GI50,SF-268 CNS,4.17 µM
same,TGI,SF-268 CNS,> 100 µM
same,GI50,DU-145 prostate,462 nM
same,TGI,DU-145 prostate,> 100 µM
same,GI50,SF-295 CNS,293 nM
same,TGI,SF-295 CNS,> 100 µM
same,TGI,TK-10 renal,> 100 µM
same,GI50,NCI-H226 lung,1960 nM
same,TGI,NCI-H226 lung,> 100 µM
same,GI50,SK-OV-3 ovarian,569 nM
same,TGI,SK-OV-3 ovarian,> 100 µM
same,GI50,UACC-257 melanoma,2170 nM
same,TGI,UACC-257 melanoma,> 64.4 µM
same,GI50,SNB-19 CNS,430 nM
same,TGI,SNB-19 CNS,> 100 µM
same,GI50,UACC-62 melanoma,295 nM
same,TGI,UACC-62 melanoma,> 100 µM
same,GI50,KM12 colon,383 nM
same,TGI,KM12 colon,> 54.8 µM
same,GI50,LOX IMVI melanoma,556 nM
same,TGI,LOX IMVI melanoma,> 100 µM
same,GI50,786-0 renal,657 nM
same,TGI,786-0 renal,> 86.1 µM
same,GI50,HCT-116 colon,369 nM
same,TGI,HCT-116 colon,> 100 µM
same,GI50,NCI-H522 lung,172 nM
same,TGI,NCI-H522 lung,527 nM
same,GI50,SW-620 colon,372 nM
same,TGI,SW-620 colon,> 100 µM
same,GI50,SK-MEL-28 melanoma,5.62 µM
same,TGI,SK-MEL-28 melanoma,> 100 µM
same,GI50,HT29 colon,323 nM
same,TGI,HT29 colon,> 100 µM
same,GI50,SR leukemia,165 nM
same,TGI,SR leukemia,> 100 µM
same,GI50,EKVX NSCLC,570 nM
same,TGI,EKVX NSCLC,> 100 µM
same,GI50,HS 578T breast,299 nM
same,TGI,HS 578T breast,> 100 µM
same,GI50,MDA-MB-435,75.1 nM
same,TGI,MDA-MB-435,274 nM
